Laboratory results as given in ChEMBL document CHEMBL5634125, “Investigation of novel 5'-amino adenosine derivatives with potential anti-Zika virus activity” (Eur J Med Chem, 2023).
Calls of active or inactive are those of the source. No cut-off for these calls is given here.

Assays:
[1] = Tmax in ICR mouse at 25 mg/kg, po administered as single dose and measured upto 24 hrs by LC-MS/MS analysis; assay type: ADME, organism-based; details: in vivo
[2] = tested on: Zika virus; experiment: Antiviral activity against Zika virus infected in golden hamster BHK-21 cells assessed as inhibition of viral replication incubated for 72 hrs by Dual-luciferase reporter assay system; assay type: functional, organism-based; details: BHK-21, 72 h
[3] = Acute toxicity in A129 mouse assessed as animal death at 100 mg/kg, po measured after 2 weeks; assay type: organism-based; details: in vivo, 336 h
[4] = tested on: Zika virus; experiment: Inhibition of Zika virus NS5-RdRp preincubated for 20 mins followed by ATP addition and measured after 60 mins by fluorescence based assay; details: dose 3.13-50 µM, time 80.0 min
[5] = tested on: Dengue virus; experiment: Antiviral activity against Dengue virus assessed as inhibition of viral RNA production at stage III; assay type: functional, organism-based
[6] = Cmax in ICR mouse at 25 mg/kg, po administered as single dose and measured upto 24 hrs by LC-MS/MS analysis; assay type: ADME, organism-based; details: in vivo
[7] = tested on: Zika virus; experiment: Antiviral activity against Zika virus SMGC-1 infected in ICR mouse assessed as survival at 1 mg/kg, ip pre-infected with virus for 4 hrs followed by once daily compound administration for 9 days and measured after 24 days relative to control; assay type: functional; details: SMGC-1, 576 h, time 24 day
[8] = tested on: Zika virus; experiment: Inhibition of Zika virus NS5-RdRp at 12.5 uM preincubated for 20 mins followed by ATP addition and measured after 60 mins by fluorescence based assay relative to control; details: time 80.0 min
[9] = tested on: Zika virus; experiment: Antiviral activity against Zika virus SMGC-1 infected in ICR mouse assessed as increase in body weight at 10 mg/kg, ip pre-infected with virus for 4 hrs followed by once daily compound administration for 9 days and measured at 14 to 24 days; assay type: functional, organism-based; details: time 14-24 day
[10] = tested on: Zika virus; experiment: Antiviral activity against Zika virus infected in golden hamster BHK cells assessed as inhibition of viral replication incubated for 72 hrs by qRT-PCR analysis; assay type: functional, organism-based; details: dose 2.5-20 µM
[11] = tested on: Dengue virus; experiment: Antiviral activity against Dengue virus assessed as inhibition of viral RNA production at stage IV; assay type: functional, organism-based
[12] = tested on: Zika virus; experiment: Antiviral activity against Zika virus infected in infected in golden hamster BHK cells assessed as inhibition of viral RNA production at stage III incubated for 24 hrs by qRT-PCR analysis; assay type: functional, organism-based
[13] = tested on: Zika virus; experiment: Inhibition of Zika virus NS5 MTase activity at 50 uM by chemiluminescence-based enzymatic assay system relative to control
[14] = tested on: Zika virus; experiment: Antiviral activity against Zika virus infected in golden hamster BHK cells assessed as inhibition of viral protein production incubated for 72 hrs by Western blot analysis; assay type: functional, organism-based; details: dose 2.5-20 µM
[15] = Acute toxicity in po dosed ICR mouse assessed as lethal dose measured after 2 weeks; assay type: organism-based; details: in vivo
[16] = tested on: U-87MG ATCC; experiment: Effect on CXCL2 expression in human U87 cells infected with Zika virus at 10 uM by KEGG enrichment analysis; assay type: functional, cell-based
[17] = tested on: U-87MG ATCC; experiment: Effect on CXCL3 expression in human U87 cells infected with Zika virus at 10 uM by KEGG enrichment analysis; assay type: functional, cell-based
[18] = Half-life in ICR mouse at 25 mg/kg, po administered as single dose and measured upto 24 hrs by LC-MS/MS analysis; assay type: ADME, organism-based; details: in vivo
[19] = tested on: Zika virus; experiment: Antiviral activity against Zika virus SMGC-1 infected in ICR mouse assessed as survival at 10 mg/kg, ip pre-infected with virus for 4 hrs followed by once daily compound administration for 9 days and measured after 24 days relative to control; assay type: functional; details: SMGC-1, 576 h, time 24 day
[20] = tested on: U-87MG ATCC; experiment: Effect on CXCL8 expression in human U87 cells infected with Zika virus at 10 uM by KEGG enrichment analysis; assay type: functional, cell-based
[21] = tested on: Zika virus; experiment: Inhibition of Zika virus NS2B-NS3 protease using Bz-Nle-Lys-Lys-Arg-AMC as substrate at 1.25 to 200 uM preincubated for 30 mins followed by substrate addition and measured after 20 mins by Real-time fluorescence based analysis; details: dose 1.25-200 µM, time 50.0 min
[22] = biological target: NS5 (Zika virus) (UniProt A0A143MHK7); experiment: Binding affinity to Zika virus RdRp by SPR analysis; details: dose 1.56-25 µM
[23] = AUC (0 to t) in ICR mouse at 25 mg/kg, po administered as single dose and measured upto 24 hrs by LC-MS/MS analysis; assay type: ADME, organism-based; details: in vivo
[24] = tested on: Zika virus; experiment: Antiviral activity against Zika virus infected in U87 cells assessed as suppression of CXCL11 expression at 10 uM by KEGG enrichment analysis; assay type: functional, organism-based
[25] = tested on: Zika virus; experiment: Antiviral activity against Zika virus infected in golden hamster BHK cells assessed as inhibition of virus induced cytopathic effect incubated for 6 to 8 days by CellTiter-Glo luminescent cell viability assay; assay type: functional, organism-based
[26] = tested on: Zika virus; experiment: Antiviral activity against Zika virus infected in golden hamster BHK cells assessed as inhibition of viral RNA production at stage IV pre-infected with virus for 2 hrs followed by compound addition and measured 24 hrs post infection by qRT-PCR analysis; assay type: functional, organism-based; details: time 22.0 hrs
[27] = Acute toxicity in A129 mouse assessed as animal death at 200 mg/kg, po measured after 2 weeks; assay type: organism-based; details: in vivo, 336 h
[28] = Acute toxicity in A129 mouse assessed as animal death at 50 mg/kg, po measured after 2 weeks; assay type: organism-based; details: in vivo, 336 h
[29] = Inhibition of Zika virus NS5 transfected in HEK293T cells co-transfected with GLuc reporter plasmid incubated for 24 hrs by GLuc reporter assay; assay type: cell-based; details: HEK-293T
[30] = tested on: Zika virus; experiment: Inhibition of Zika virus NS5-RdRp at 50 uM preincubated for 20 mins followed by ATP addition and measured after 60 mins by fluorescence based assay relative to control; details: time 80.0 min
[31] = tested on: Zika virus; experiment: Antiviral activity against Zika virus infected in Ifnar-/- A129 mouse assessed as reduction in viral RNA in serum at 10 mg/kg, ip administered twice daily for 4 days by qRT-PCR analysis; assay type: functional, organism-based; details: time 4.0 day
[32] = tested on: Zika virus; experiment: Antiviral activity against Zika virus infected in golden hamster BHK cells assessed as reduction in infectious viral propagation incubated for 72 hrs by plaque reduction assay; assay type: functional, organism-based; details: dose 2.5-20 µM
[33] = MRT in ICR mouse at 25 mg/kg, po administered as single dose and measured upto 24 hrs by LC-MS/MS analysis; assay type: ADME, organism-based; details: in vivo

In the case of `O[C@@H]1[C@H](O)[C@@H](CNCc2ccc(C(F)(F)F)cc2)O[C@H]1n1cnc2c(NCc3cccc(Cl)c3)ncnc21`, the Tmax [1] is reported as 0.42 h, the IC50 [2] is reported as 5.27 µM and the Activity [3] is reported as “Non-Toxic”. For the same compound, the inhibition [4] was “Dose-Dependent Effect”, the Activity [5] was “Active” and the Cmax [6] was 0.699 µg/mL. The survival at 1 mg/kg [7] was 30%, the inhibition [8] was 17.5% and the Activity [9] was “Active”. For the same compound, the Activity [10] was “Dose-Dependent Effect”, the Activity [11] was “Active” and the Activity [12] was “Active”. For the same compound, the inhibition [13] was 20.5%, the Activity [14] was “Dose-Dependent Effect” and the LD50 at 336 h [15] was greater than 200 mg/kg. For the same compound, the Activity [16] was “inactive”, the Activity [17] was “inactive” and the half-life [18] was 2.46 h. The survival at 10 mg/kg [19] was 70%, the Activity [20] was “inactive” and the inhibition [21] was “inactive”. For the same compound, the Activity [22] was “Dose-Dependent Effect”, the AUC(0-t) at 24 h [23] was 2.22 µg·h/mL and the Activity [24] was “Active”. The IC50 [25] was 2.15 µM, the Activity [26] was “Active” and the Activity [27] was “Non-Toxic”. The Activity [28] was “Non-Toxic”, the IC50 [29] was 8.78 µM and the inhibition [30] was 62.4%. For the same compound, the Activity [31] was “Active”, the Activity [32] was “Dose-Dependent Effect” and the MRT [33] was 3.82 h.
